Where two headings read alike, the source gives them in different places.

For data set [1], the target named is T1, human serum albumin (Homo sapiens, UniProt P02768).
T1 construct: purchased Daicel Chemical Industries, purchased from Chiral Technologies Europe (Illkirch, France) Chiralpak HSA (5 μm, 50 × 3 mm)
Details: method as in Valko et. al. or Yamazaki et al. [3, 4]. Particulars: calibration reference substances; ref Valko et. al. or Yamazaki et al. [3, 4]; cited from earlier work.

The target in data set [2] is T1, human serum albumin. The data set is described as follows: human serum albumin binding, HPLC on Chiralpak HSA column. Particulars: for Log K HSA: calibration reference substances, logarithmic K from the literature HSA binding, ref [3, 4]; for bound to HSA: HPLC, Chiralpak HSA column. Type of data set: in vitro ADME. Here is the method: High in vivo plasma protein binding increases the plasma half-life of the radiopharmaceutical and therefore might offer beneficiary effects on the tracer distribution (higher uptake into target tissue) but can also lead to increased background activity especially at early time points. In general, drugs binding to plasma proteins with high affinity feature moderate to high lipophilicity, in many cases due to halogenated aromatic groups. […] Human albumin binding was determined, applying a modified HPLC method.
Mobile phase A was an ammonium acetate buffer (50 mM, pH 6.9), mobile phase B was 2-propanol, the flow rate was 0.5 mL/min, and equilibration with 0% B for 3 min was followed by a gradient of 0% B to 20% B to the end of each run within 45 min. To check the column performance and to conduct the non-linear regression, the HSA column was calibrated each day with nine reference substances. Afterward, the PSMA inhibitors with unknown HSA binding were measured. The retention times and factors together with correlation curve are found in Additional file 1.
HSA binding experiments were performed as previously described. […] For each run, 10 µL of the solution containing the inhibitor was injected into the RP-HPLC system and the retention time measured. […] Non-linear regression was established with OriginPro 2016G.

Data set [3] deals with T2, PSMA (Homo sapiens, UniProt Q04609).
T2 construct: endogenous in cells; host or cells: LNCaP cells (CLS: 300265)
Briefly: competitive binding assay on LNCaP cells (radioligand 125I-IBA). Particulars: read-out: IC50 (affinity to PSMA). The method, then:
The effect of the lipophilic (aromatic) modifications in the spacer unit of the acetylated PSMA inhibitors 1–9 on the IC50 to PSMA was determined in a competitive binding assay on PSMA-expressing LNCaP cells.
The PSMA affinity was determined as described previously. In brief, 150,000 LNCaP cells were seeded into 24-well plates one day prior to the experiment. […] After removal of the supernatant, the cells were washed once with HBSS and subsequently lysed with 1 n NaOH. Both fractions were quantified in a γ-counter. Using the Graphpad Prism software, binding curves were plotted and IC50 values were extracted. Three independent determinations were performed in triplicate for each compound.

In data set [4] the target is T2, PSMA. Particulars: LNCaP cells 150,000 cells/well, 4 °C, 1 h, c(125I-IBA) = 0.2 nM; mean ± SD; ref [17]; read-out: IC50 (affinity to PSMA); cited from earlier work.
[5] abbreviates: LNCaP cells 150,000 cells/well, 4 °C, 1 h, c(125I-IBA) = 0.2 nM, mean ± SD (n = 3).

T2 sequence (Q04609 whole entry): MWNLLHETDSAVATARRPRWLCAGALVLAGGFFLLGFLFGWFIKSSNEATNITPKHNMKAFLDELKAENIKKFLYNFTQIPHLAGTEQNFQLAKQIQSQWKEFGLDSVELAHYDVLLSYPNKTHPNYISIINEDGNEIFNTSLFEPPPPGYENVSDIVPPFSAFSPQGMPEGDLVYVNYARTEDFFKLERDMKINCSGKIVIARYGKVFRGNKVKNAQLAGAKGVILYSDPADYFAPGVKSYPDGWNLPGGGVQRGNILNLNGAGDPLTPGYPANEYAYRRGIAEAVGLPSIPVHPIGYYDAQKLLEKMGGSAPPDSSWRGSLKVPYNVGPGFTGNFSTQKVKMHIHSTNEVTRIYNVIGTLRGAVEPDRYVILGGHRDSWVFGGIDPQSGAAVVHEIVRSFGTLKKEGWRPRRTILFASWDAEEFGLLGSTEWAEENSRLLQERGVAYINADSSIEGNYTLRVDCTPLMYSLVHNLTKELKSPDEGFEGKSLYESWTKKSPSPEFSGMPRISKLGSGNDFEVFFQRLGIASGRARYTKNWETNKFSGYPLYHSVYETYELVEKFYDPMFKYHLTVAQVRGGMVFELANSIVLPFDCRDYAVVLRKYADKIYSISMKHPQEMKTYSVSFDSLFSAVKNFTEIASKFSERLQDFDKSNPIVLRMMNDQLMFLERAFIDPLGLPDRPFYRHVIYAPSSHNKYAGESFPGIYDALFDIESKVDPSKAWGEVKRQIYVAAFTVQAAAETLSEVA
T1 sequence (P02768 25-609): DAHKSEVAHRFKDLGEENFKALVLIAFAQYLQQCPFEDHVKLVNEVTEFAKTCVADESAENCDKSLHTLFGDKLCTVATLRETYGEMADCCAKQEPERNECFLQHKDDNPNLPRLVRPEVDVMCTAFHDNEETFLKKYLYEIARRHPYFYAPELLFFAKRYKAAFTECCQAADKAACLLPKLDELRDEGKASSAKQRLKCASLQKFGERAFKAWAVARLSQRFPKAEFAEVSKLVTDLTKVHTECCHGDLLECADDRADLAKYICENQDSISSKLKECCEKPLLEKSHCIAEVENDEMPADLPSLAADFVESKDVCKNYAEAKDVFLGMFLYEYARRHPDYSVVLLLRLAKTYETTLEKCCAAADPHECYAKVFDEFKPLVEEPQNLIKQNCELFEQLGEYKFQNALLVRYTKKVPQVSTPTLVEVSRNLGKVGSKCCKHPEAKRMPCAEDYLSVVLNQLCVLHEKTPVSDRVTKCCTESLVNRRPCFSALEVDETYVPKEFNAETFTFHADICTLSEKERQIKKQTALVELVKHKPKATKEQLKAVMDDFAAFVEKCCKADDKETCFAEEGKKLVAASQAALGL

Take `Nc1ccccc1` [Aniline]: the “Lit. HSA% (literature value of human serum albumin binding)” value (from here on “Lit. HSA%”) on human serum albumin [1] was 14.06%. Besides, the “Log K HSA” value at human serum albumin [2] is given as -0.79.
As usually defined, the IC50 is the midpoint of a concentration-inhibition curve. Turning to “^natGa-DOTAGA-y-2-nal-k((I-f)-Glut-KuE) [^natGa-11]”, on PSMA [3] (setting [5]), the 50% inhibitory concentration (IC50) was 9.3 ± 2.9 nM.
Regarding “^natLu-DOTAGA-y-2-nal-k((I-f)-Glut-KuE) [^natLu-11]”, at PSMA [3] (setting [5]), the IC50 came out at 6.1 ± 1.6 nM. Moreover, the “bound to HSA” value at human serum albumin [2] came out at 97%.
For `O=C(O)CC[C@H](NC(=O)N[C@@H](CCCCNC(=O)CCCCCCC(=O)NCCCC[C@@H](NC(=O)[C@@H](Cc1ccc2ccccc2c1)NC(=O)[C@@H](Cc1ccc(O)cc1)NC(=O)CCC(C(=O)O)N1CCN(CC(=O)O)CCN(CC(=O)O)CCN(CC(=O)O)CC1)C(=O)O)C(=O)O)C(=O)O` (some centres unmarked) [PSMA inhibitor 10, DOTAGA-y-2-nal-k(Sub-KuE)], at PSMA [3] (setting [5]), the IC50 came out at 8.5 ± 2.5 nM.
For the compound `CC(=O)N[C@@H](Cc1ccc(O)cc1)C(=O)N[C@@H](Cc1cccc2ccccc12)C(=O)N[C@@H](CCCCNC(=O)CCCCCCC(=O)NCCCC[C@H](NC(=O)N[C@@H](CCC(=O)O)C(=O)O)C(=O)O)C(=O)O` [PSMA inhibitor 5, Ac-Y-1-Nal-K(Sub-KuE)], the half-inhibitory concentration (IC50) at PSMA [3] is 4.3 ± 0.9 nM.
Consider `O=C(O)CC[C@H](NC(=O)N[C@@H](CCCCNC(=O)CCCCCCC(=O)NCCCC[C@@H](NC(=O)[C@@H](Cc1ccccc1)NC(=O)[C@@H](Cc1ccc(O)c(I)c1)NC(=O)CCC(C(=O)O)N1CCN(CC(=O)O)CCN(CC(=O)O)CCN(CC(=O)O)CC1)C(=O)O)C(=O)O)C(=O)O` (some centres unmarked) [PSMA I&T, DOTAGA-(I-y)fk(Sub-KuE)], for which the 50% inhibitory concentration (IC50) at PSMA [4] is 10.2 ± 3.5 nM.
Turning to `CC(=O)N[C@@H](Cc1ccc(O)cc1)C(=O)N[C@@H](Cc1ccc(-c2ccccc2)cc1)C(=O)N[C@@H](CCCCNC(=O)CCCCCCC(=O)NCCCC[C@H](NC(=O)N[C@@H](CCC(=O)O)C(=O)O)C(=O)O)C(=O)O` [PSMA inhibitor 4, Ac-Y-(Biphenyl-A)K(Sub-KuE)], the IC50 on PSMA [3] came to 139 ± 117 nM.
`COc1ccc(Cl)cc1C(=O)NCCc1ccc(S(=O)(=O)NC(=O)NC2CCCCC2)cc1` [Glibenclamide]: the “Lit. HSA%” value on human serum albumin [1] is 99.00%. The “Log K HSA” value on human serum albumin [2] is 1.69.
With `CC(=O)N[C@@H](Cc1ccc(O)cc1)C(=O)N[C@@H](Cc1cc(I)c(O)c(I)c1)C(=O)N[C@@H](CCCCNC(=O)CCCCCCC(=O)NCCCC[C@H](NC(=O)N[C@@H](CCC(=O)O)C(=O)O)C(=O)O)C(=O)O` [PSMA inhibitor 8, Ac-Y(3,5-di-I-Y)K(Sub-KuE)], the concentration for half-maximal inhibition (IC50) on PSMA [3] is 3.8 ± 0.6 nM.
Same read-out and setting: the figure for `CC(=O)N[C@@H](Cc1ccc(O)cc1)C(=O)N[C@@H](Cc1ccccc1)C(=O)N[C@@H](CCCCNC(=O)CCCCCCC(=O)NCCCC[C@H](NC(=O)N[C@@H](CCC(=O)O)C(=O)O)C(=O)O)C(=O)O` [PSMA inhibitor 1, Ac-YFK(Sub-KuE)] is 15 ± 1.3 nM; for `CC(=O)N[C@@H](Cc1ccc(O)cc1)C(=O)N[C@@H](Cc1ccc2ccccc2c1)C(=O)N[C@@H](CCCCNC(=O)CCCCCCC(=O)NCCCC[C@H](NC(=O)N[C@@H](CCC(=O)O)C(=O)O)C(=O)O)C(=O)O` [PSMA inhibitor 6, Ac-Y-2-Nal-K(Sub-KuE)] it is 3.9 ± 1.7 nM.
For the compound “^natLu-DOTAGA-(I-y)fk(Sub-KuE) [^natLu-PSMA I&T]”, the IC50 at PSMA [4] is 7.9 ± 2.4 nM. Also, the “bound to HSA” value on human serum albumin [2] came to 79%.
On to `CC(=O)N[C@@H](Cc1ccc(O)cc1)C(=O)N[C@@H](Cc1c[nH]c2ccccc12)C(=O)N[C@@H](CCCCNC(=O)CCCCCCC(=O)NCCCC[C@H](NC(=O)N[C@@H](CCC(=O)O)C(=O)O)C(=O)O)C(=O)O` [PSMA inhibitor 2, Ac-YWK(Sub-KuE)], for which the IC50 at PSMA [3] worked out at 6.8 ± 3.3 nM.
As for `CC(=O)N[C@@H](Cc1ccc(O)cc1)C(=O)N[C@@H](Cc1ccc(O)c(C)c1)C(=O)N[C@@H](CCCCNC(=O)CCCCCCC(=O)NCCCC[C@H](NC(=O)N[C@@H](CCC(=O)O)C(=O)O)C(=O)O)C(=O)O` [PSMA inhibitor 9, Ac-Y(3-CH3-Y)K(Sub-KuE)], the concentration for half-maximal inhibition (IC50) on PSMA [3] came out at 7.2 ± 0.9 nM.
Turning to `O=C(O)c1ccccc1` [Benzoic Acid], at human serum albumin [1], the “Lit. HSA%” value was 34.27%.
In the case of “^natGa-DOTAGA-y-2-nal-k(Sub-KuE) [^natGa-10]”, the IC50 at PSMA [3] (setting [5]) was determined as 9.8 ± 3.2 nM.
`O=C(O)CC[C@H](NC(=O)N[C@@H](CCCCNC(=O)[C@@H](Cc1ccc(I)cc1)NC(=O)CCCC(=O)NCCCC[C@@H](NC(=O)[C@@H](Cc1ccc2ccccc2c1)NC(=O)[C@@H](Cc1ccc(O)cc1)NC(=O)CCC(C(=O)O)N1CCN(CC(=O)O)CCN(CC(=O)O)CCN(CC(=O)O)CC1)C(=O)O)C(=O)O)C(=O)O` (some centres unmarked) [PSMA inhibitor 11, DOTAGA-y-2-nal-k((I-f)-Glut-KuE)]: on PSMA [3] (setting [5]), the IC50 amounted to 4.6 ± 0.9 nM.
Turning to “^natLu-DOTAGA-y-2-nal-k(Sub-KuE) [^natLu-10]”, the IC50 on PSMA [3] (setting [5]) turned out to be 2.1 ± 0.8 nM. The “bound to HSA” value on human serum albumin [2] is on record as 83%.
Consider `Oc1ccccc1` [Phenol], for which, at human serum albumin [1], the “Lit. HSA%” value was 20.69%. Further, the “Log K HSA” value on human serum albumin [2] is reported as -0.59.
Turning to `CCCN(CCC)S(=O)(=O)c1ccc(C(=O)O)cc1` [Probenecid], on human serum albumin [1], the “Lit. HSA%” value is recorded as 95.00%. At human serum albumin [2], the “Log K HSA” value is 1.20.
Consider “^natGa-DOTAGA-(I-y)fk(Sub-KuE) [^natGa-PSMA I&T]”, for which the IC50 at PSMA [4] was 9.3 ± 3.3 nM.
Regarding `CC(=O)N[C@@H](Cc1ccc(O)cc1)C(=O)N[C@@H](Cc1ccc([N+](=O)[O-])cc1)C(=O)N[C@@H](CCCCNC(=O)CCCCCCC(=O)NCCCC[C@H](NC(=O)N[C@@H](CCC(=O)O)C(=O)O)C(=O)O)C(=O)O` [PSMA inhibitor 7, Ac-Y(4-NO2-F)K(Sub-KuE)], on PSMA [3], the concentration for half-maximal inhibition (IC50) was determined as 7.4 ± 0.5 nM.

The values above are taken from article PMC6104465, “Synthesis and in vitro and in vivo evaluation of urea-based PSMA inhibitors with increased lipophilicity” (EJNMMI Research, 2018).
